Experimental findings from patent US11198699B2 (ALIGOS THERAPEUTICS, INC., priority 2019, dated 2021) are described below.

SMILES strings stand for the structures.

Assay [1] relates to A549 lung carcinoma cells. The assay can be described thus: Cell proliferation assay, A549 (CellTiter-Glo, 7 days). The class given is cell-based. Particulars: A549, 7 days, CellTiter-Glo 2.0. The protocol:
(§1) HepG2 hepatoma cells (ATCC, HB-8065) were maintained in DMEM with high glucose (Lonza, 12-914F) supplemented with 10% fetal bovine serum (FBS; Biowest, S181B-500) and 2 mM L-glutamine (Biowest, X0551-100) at 37° C. and 5% CO2. A549 lung carcinoma cells (ATCC, CCL-185) were maintained in F-12K medium (ThermoFisher 21127030) supplemented with 10% FBS at 37° C. and 5% CO2. Exponentially growing HepG2 or A549 were plated in white, clear-bottom 96-well plates (Corning, 3903) at a cell density of 2000 (HepG2) or 350 (A549) cells per well in 199 μL of HepG2 medium. Next, 1 μL of a 5-fold 9-point dilution series of test compound in DMSO was added to the different wells. Cells were incubated at 37° C. 5% CO2 for 7 days. Cell viability was assessed on day 7 with the CellTiter-Glo 2.0 Cell Viability assay kit (Promega, G9243) to quantify the intracellular amounts of ATP: first, 100 μL of cell culture medium was removed from each well, next 100 μL of CellTiter-Glo® 2.0 Reagent was added and plates were shaken for 2 minutes on an orbital shaker. After 10 minutes stabilization at room temperature, read-out was performed on a ThermoFisher VarioSkan Lux plate reader. Counts were normalized to DMSO control (0% inhibition) and the cytotoxic control (100% inhibition) and EC50 values were determined in GraphPad Prism 8 using the [Agonist] vs. response—Variable slope (four parameters) function.
(§2) As shown by the data of Table 2, compounds of Formula (I) have activity in this assay. A value of ‘A’ in the table below indicates an EC50 of <20 nM, a value of ‘B’ indicates an EC50≥20 nM to <100 nM, a value of ‘C’ indicates an EC50 value of EC50≥100 nM to <1000 nM and a value of ‘D’ indicates an EC50≥1000 nM
(ATP-based viability assays read luminescence as a measure of living cells.)

Assay [2] concerns HepG2 hepatoma cells. Briefly: Cell proliferation assay, HepG2 (CellTiter-Glo, 7 days). Particulars: HepG2, 7 days, CellTiter-Glo 2.0. The class given is cell-based. The protocol: as §1, §2
The target in assay [3] is T1, PRMT5/MEP50 (Homo sapiens (Human), UniProt O14744). The assay can be described thus: PRMT5/MEP50 enzyme inhibition assay, Assay 1 (radioisotope filter binding, 3H-SAM, histone H2A). The class given is biochemical. Particulars: 1 μM 3H-SAM, 5 μM histone H2A, 60 min at 30° C. The protocol:
Compounds were tested for inhibition of methyltransferase activity in a radioisotope filter binding assay, similar to previously described in A selective inhibitor of PRMT5 with in vivo and in vitro potency in MCL models. Chan-Penebre et al., Nat Chem Biol. (2015) 11(6):432-7. In the standard PRMT5/MEP50 enzyme inhibition assay, compounds were tested in a 10-dose IC50 mode with 3- or 5-fold serial dilution, in singlet, starting at 1, 10, or 100 μM. Control compound, SAH (S-(5′-Adenosyl)-L-homocysteine), was tested in 10-dose IC50 mode with 3-fold serial dilution starting at 100 μM. Reactions were carried out at 1 μM 3H-SAM (PerkinElmer) and 5 μM histone H2A as substrates for methyl transfer. Following a 60 min incubation at 30° C., the reaction was stopped with 20% TCA. Each reaction was spotted on a filter plate (Multiscreen FB Filter plate, Millipore) and washed 5 times in PBS, after which scintillation fluid was added and signal was detected in a scintillation counter. Percent enzyme activity was calculated based on no inhibitor DMSO control as 100% activity. EC50 values were determined in GraphPad Prism 8 using the [inhibitor] vs. response—Variable slope (four parameters) function.
(§3) Compounds of Formula (I) show activity in this assay. A value of ‘A’ in the table below indicates an IC50 of <1 nM, a value of ‘B’ indicates an IC50≥1 nM to ≤100 nM, and a value of ‘C’ indicates an IC50 value of >100 nM.

The target of assay [4] is T1, PRMT5/MEP50. Briefly: PRMT5/MEP50 enzyme inhibition assay, Assay 2 (384-well, MALDI mass spectrometry, histone H4 1-21 peptide). As to conditions: 1 μM SAM, 0.1 μM histone H4 1-21 peptide, 18-hour incubation at rt. The class given is biochemical. As for the experimental part: Compounds were tested for inhibition of methyltransferase activity in 384-well plate assay format using mass spectrometry technology. In this enzyme inhibition assay, compounds were tested in a 11-dose IC50 mode with 3-serial dilution, in duplicate, starting at 1, 10, or 100 μM. Reactions were carried out at 1 μM SAM and 0.1 μM histone H4 1-21 peptide as substrates for methyl transfer. Following an 18-hour incubation at rt, the reaction was stopped with 0.5% formic acid. Products of the reaction were captured while unreacted substrates were washed away, prior to MALDI mass spectrometry detection and analysis. Percent enzyme activity was calculated based on no inhibitor DMSO control as 100% activity. EC50 values were determined in GraphPad Prism 8 using the [inhibitor] vs. response—Variable slope (four parameters) function.
as §3

T1 sequence (O14744 whole entry): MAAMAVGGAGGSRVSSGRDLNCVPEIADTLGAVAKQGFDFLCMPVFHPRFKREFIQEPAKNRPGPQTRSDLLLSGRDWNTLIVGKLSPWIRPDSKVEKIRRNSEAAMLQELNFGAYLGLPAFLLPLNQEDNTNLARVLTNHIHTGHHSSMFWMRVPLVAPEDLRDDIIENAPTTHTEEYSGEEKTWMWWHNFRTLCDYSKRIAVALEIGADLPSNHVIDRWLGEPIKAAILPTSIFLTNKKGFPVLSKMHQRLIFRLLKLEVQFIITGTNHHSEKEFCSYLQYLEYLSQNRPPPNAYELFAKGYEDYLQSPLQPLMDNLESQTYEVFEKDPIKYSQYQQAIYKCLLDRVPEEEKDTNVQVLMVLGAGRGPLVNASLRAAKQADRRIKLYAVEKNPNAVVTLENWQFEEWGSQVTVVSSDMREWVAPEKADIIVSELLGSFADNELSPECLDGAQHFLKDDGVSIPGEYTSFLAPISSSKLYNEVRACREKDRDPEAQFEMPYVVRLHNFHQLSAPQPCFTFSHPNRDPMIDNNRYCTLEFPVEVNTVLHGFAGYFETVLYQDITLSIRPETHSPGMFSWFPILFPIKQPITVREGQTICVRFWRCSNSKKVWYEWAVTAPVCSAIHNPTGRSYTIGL
T1 sequence (Q9BQA1 whole entry partner): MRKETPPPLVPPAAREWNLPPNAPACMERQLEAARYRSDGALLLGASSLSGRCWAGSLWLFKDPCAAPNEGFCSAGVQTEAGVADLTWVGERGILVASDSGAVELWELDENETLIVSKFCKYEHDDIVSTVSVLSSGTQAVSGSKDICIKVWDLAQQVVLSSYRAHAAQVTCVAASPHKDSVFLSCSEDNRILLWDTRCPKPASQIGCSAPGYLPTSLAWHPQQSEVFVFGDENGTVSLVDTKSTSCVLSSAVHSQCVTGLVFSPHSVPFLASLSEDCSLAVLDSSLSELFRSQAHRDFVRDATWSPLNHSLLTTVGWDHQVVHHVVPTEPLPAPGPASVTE

For the molecule `Nc1nc2cc(OC[C@H]3C[C@@H](n4ccc5c(N)ncnc54)[C@H](F)[C@@H]3O)ccc2cc1Br` [Compound 11, (1R,2S,3R,5R)-5-[(2-amino-3-bromo-7-quinolyl)oxymethyl]-3-(4-aminopyrrolo[2,3-d]pyrimidin-7-yl)-2-fluoro-cyclopentanol], the EC50 – broadly, the midpoint of the concentration-response curve – in assay [1] (Homo sapiens, A549, 168 h) was not below 1000 nM; in assay [2] (Homo sapiens, 168 h) it was 100 to 1000 nM. Further, the IC50 – broadly, the point on the concentration scale where inhibition reaches its midpoint – is more than 100 nM in assay [3] and 1 to 100 nM in assay [4].
As to `Nc1nc2cc(CC[C@@]34C[C@@H]3[C@@H](n3ccc5c(N)ncnc53)[C@H](O)[C@@H]4O)ccc2cc1Br` [Compound 2], the 50% effective concentration (EC50) in assay [1] and in assay [2] was less than 20 nM in each case. The IC50 in assay [3] and in assay [4] was less than 1 nM throughout.
In assay [3], `C[C@]1(/C=C/c2ccc3cc(Br)c(N)nc3c2)C[C@@H](n2ccc3c(N)ncnc32)[C@H](O)[C@@H]1O` [Compound 1] yielded a half-inhibitory concentration (IC50) of less than 1 nM.
For the molecule `Nc1ccc2ccc(CC[C@@]34C[C@@H]3[C@@H](n3ccc5c(N)ncnc53)[C@H](O)[C@@H]4O)cc2n1` [Compound 13, (1R,2R,3S,4R,5S)-4-(4-aminopyrrolo[2,3-d]pyrimidin-7-yl)-1-[2-(2-amino-7-quinolyl)ethyl]bicyclo[3.1.0]hexane-2,3-diol], the EC50 in assay [1] (Homo sapiens, A549, 168 h) was less than 20 nM; in assay [2] (Homo sapiens, 168 h), less than 20 nM. Further, the half-maximal inhibitory concentration (IC50) in assay [3] and in assay [4] was less than 1 nM each time.
On to `C[C@H]1[C@H](CCc2ccc3ccc(N)nc3c2)[C@@H](O)[C@@H](O)[C@@H]1n1ccc2c(N)ncnc21` [Compound 5], for which the EC50 in assay [1] and in assay [2] was 100 to 1000 nM in each case. The concentration for half-maximal inhibition (IC50) in assay [3] and in assay [4] was less than 1 nM throughout.
`C[C@@H]1[C@H](CCc2ccc3ccc(N)nc3c2)[C@@H](O)[C@@H](O)[C@@H]1n1ccc2c(N)ncnc21` [Compound 6]: the EC50 in assay [1] and in assay [2] was not below 1000 nM in each case. In addition, the IC50 in assay [3] and in assay [4] was 1 to 100 nM in each case.
On to `C=C1[C@@H](n2ccc3c(N)ncnc32)[C@H](O)[C@H](O)[C@H]1CCc1ccc2cc(Br)c(Cl)nc2c1` [Compound 3], for which the EC50 in assay [1] and in assay [2] was 100 to 1000 nM in each case. The IC50 in assay [3] and in assay [4] was more than 100 nM each time.
Take `Nc1ncnc2c1ccn2[C@H]1[C@H](O)[C@H](O)[C@]2(C(O)c3ccc(Cl)c(Cl)c3)C[C@H]12` (single isomer, unassigned) [Compound 8, (1R, 2R, 3S, 4R, 5S)-4-(4-aminopyrrolo[2,3-d]pyrimidin-7-yl)-1-[(S or R)-(3,4-dichlorophenyl)-hydroxy-methyl]bicyclo[3.1.0]hexane-2,3-diol]: the EC50 in assay [1] was not below 1000 nM; in assay [2] it was 100 to 1000 nM. Moreover, the figures for the IC50 in assay [3] and in assay [4] were 1 to 100 nM and more than 100 nM, respectively.
With `Nc1nc2cc(OC[C@@]3(F)C[C@@H](n4ccc5c(N)ncnc54)[C@H](O)[C@@H]3O)ccc2cc1Br` [Compound 9, (1S,2S,3S,5R)-3-[(2-amino-3-bromo-7-quinolyl)oxymethyl]-5-(4-aminopyrrolo[2,3-d]pyrimidin-7-yl)-3-fluoro-cyclopentane-1,2-diol], the EC50 in assay [1] (Homo sapiens, A549, 168 h) fell in the range of 20 to 100 nM; in assay [2] (Homo sapiens, 168 h), 20 to 100 nM. Further, the IC50 in assay [3] and in assay [4] was less than 1 nM in each case.
As for `Nc1ncnc2c1ccn2[C@H]1[C@H](O)[C@H](O)[C@]2(C(O)c3ccc(Cl)c(Cl)c3)C[C@H]12` (single isomer, unassigned) [Compound 7, (1R,2R,3S,4R,5S)-4-(4-aminopyrrolo[2,3-d]pyrimidin-7-yl)-1-[(R or S)-(3,4-dichlorophenyl)-hydroxy-methyl]bicyclo[3.1.0]hexane-2,3-diol], the EC50 in assay [1] lay in the range of 100 to 1000 nM; in assay [2] (Homo sapiens, 168 h), 100 to 1000 nM. In addition, the IC50 was less than 1 nM in assay [3] and 1 to 100 nM in assay [4].
With `C[C@]1(CCc2ccc3cc(C4CC4)c(N)nc3c2)C[C@@H](n2ccc3c(N)ncnc32)[C@H](O)[C@@H]1O` [Compound 14, (1S,2R,3S,5R)-3-[2-(2-amino-3-cyclopropyl-7-quinolyl)ethyl]-5-(4-aminopyrrolo[2,3-d]pyrimidin-7-yl)-3-methylcyclopentane-1,2-diol], the EC50 in assay [1] (Homo sapiens, A549, 168 h) was less than 20 nM; in assay [2] (Homo sapiens, 168 h), less than 20 nM. For the same molecule, the IC50 in assay [3] and in assay [4] was less than 1 nM in each case.
`Cc1cc2ccc(CC[C@@]3(C)C[C@@H](n4ccc5c(N)ncnc54)[C@H](O)[C@@H]3O)cc2nc1N` [Compound 10, (1S,2R,3S,5R)-3-[2-(2-amino-3-methyl-7-quinolyl)ethyl]-5-(4-aminopyrrolo[2,3-d]pyrimidin-7-yl)-3-methyl-cyclopentane-1,2-diol]: the EC50 in assay [1] (Homo sapiens, A549, 168 h) was less than 20 nM; in assay [2] (Homo sapiens, 168 h) it was less than 20 nM. For the same molecule, the IC50 in assay [3] and in assay [4] was less than 1 nM each time.
Turning to `C[C@]1(CCc2ccc3ccc(N)nc3c2)C[C@@H](n2ccc3c(N)ncnc32)[C@H](O)[C@@H]1O` [Compound 12, (1S,2R,3S,5R)-5-(4-amino-7H-pyrrolo[2,3-d]pyrimidin-7-yl)-3-(2-(2-aminoquinolin-7-yl)ethyl)-3-methylcyclopentane-1,2-diol], the EC50 in assay [1] (Homo sapiens, A549, 168 h) is less than 20 nM; in assay [2] (Homo sapiens, 168 h), less than 20 nM. Also, the 50% inhibitory concentration (IC50) in assay [3] and in assay [4] was less than 1 nM throughout.
Regarding `C=C1[C@@H](n2ccc3c(N)ncnc32)[C@H](O)[C@H](O)[C@H]1CCc1ccc2cc(Br)c(N)nc2c1` [Compound 4], the EC50 in assay [1] and in assay [2] was less than 20 nM each time. Further, the half-maximal inhibitory concentration (IC50) in assay [3] and in assay [4] was less than 1 nM in each case.
For `C[C@]1(CCc2cc3nc(N)ccc3c(F)c2F)C[C@@H](n2ccc3c(N)ncnc32)[C@H](O)[C@@H]1O` [Compound 41, (1S,2R,3S,5R)-3-(2-(2-amino-5,6-difluoroquinolin-7-yl)ethyl)-5-(4-amino-7H-pyrrolo[2,3-d]pyrimidin-7-yl)-3-methylcyclopentane-1,2-diol], the EC50 in assay [1] (Homo sapiens, A549, 168 h) was less than 20 nM; in assay [2] (Homo sapiens, 168 h) it was less than 20 nM. This molecule displayed an IC50 in assay [4] of less than 1 nM.
On to `C[C@]1(CCc2ccc3ccc(N)nc3c2)C[C@@H](c2cnn3c(N)ncnc23)[C@H](O)[C@@H]1O` [Compound 56], for which the EC50 in assay [1] (Homo sapiens, A549, 168 h) is less than 20 nM; in assay [2] (Homo sapiens, 168 h), less than 20 nM. In assay [4], this molecule came in with an IC50 of less than 1 nM.
Regarding `C#C[C@]1(CCc2cc(F)c3cc(Cl)c(N)nc3c2)C[C@@H](n2ccc3c(N)ncnc32)[C@H](O)[C@@H]1O` [Compound 52], the EC50 is less than 20 nM in assay [1] (Homo sapiens, A549, 168 h) and less than 20 nM in assay [2] (Homo sapiens, 168 h). The IC50 in assay [4] was less than 1 nM.
